Measured values: patent publication US20220280503A1, “COMPOSITIONS OF OPIOID ANTAGONISTS, IMPLANT DEVICES, AND TREATMENT METHODS FOR OPIOID USE DISORDER” (Delpor, Inc., priority 2019, published 2022)
Counter-ions that a name gives are not always drawn.

Experiment: in vitro release of naltrexone from drug delivery devices (Example 1)
Type: physicochemical
Details: porous membrane about 5-20 mm^2 diffusible area, approximately 70% porosity; phosphate buffer, 37° C.
Text: Naltrexone base was compounded with anisic acid at acid:drug ratios of 0:[…] (molar basis), tableted with polyvinylpyrrolidone as a binder and stearic acid as a lubricant (12% and 2% of the final formulation mass, respectively), and loaded into delivery devices equipped with 0.1 micron polyvinylidene fluoride (DURAPORE®) membranes. In a subset of devices, approximately 75% of the available membrane surface area was blocked to measure the influence of surface area upon output rate. All devices were vacuum back-filled with phosphate buffer and transferred to jars containing a volume (˜100 mL) of the same buffer. The sealed jars were then incubated at 37° C., and small aliquots (˜500 μL) of receiving buffer were withdrawn at selected time points to quantify the released drug by high pressure liquid chromatography (HPLC).

SMILES: O=C1CC[C@@]2(O)[C@H]3Cc4ccc(O)c5c4[C@@]2(CCN3CC2CC2)[C@H]1O5 [naltrexone HCl]
- in vitro elution rate of naltrexone from device: over 50 mg/day
